# Measured values published in US20190160035A1, “METHOD OF TREATMENT” (QBIOTICS LIMITED, priority 2016, published 2019).
# How the values were obtained:
# [1] = Example 1: safety evaluation (clinical parameters, adverse events graded by VCOG-CTCAE); format: in vivo, Canis lupus familiaris (dog)
# Protocol: Clinical parameters such as bodyweight (kg), rectal temperature (° C.), heart rate (HR) per minute, respiratory rate (RR) per minute, general demeanor and body function (e.g. eating, drinking, urine and stools), were collected on each enrolled dog at screening, immediately pre-treatment, at approximately 2-4 and 24 hours post-treatment, and at 7(±2), 14(±2) and 28(±2) days post treatment. An adverse event (AE) was defined as any unfavorable and unintended sign, symptom, or disease temporally associated with the use of the drug, whether or not related to the product (VCOG-CTCAE, 2011). AE were graded according to the VCOG-CTCAE classification which is a descriptive severity scale (grade system) used for AE reporting in dogs treated with antineoplastic therapy.
# With the exception of swelling and pain, local tissue pathology as a result of treatment (i.e. tumor necrosis) was not considered an adverse event (AE). AEs such as rapid breathing, mild tachycardia and post treatment lethargy are generally considered to be the result of the powerful local inflammatory response and systemic activation of the dog's immune response during the treatment response phase. In this study, 44 AEs were identified in 15 event types. The majority of identified AEs (28 out of 44; […]) were represented by the ‘mild’ VCOG-CTCAE classification Grade 1 with no intervention required. With the exception of dog C03-T-07, a level of minimal medical intervention was required in only 3 cases. […] With the exception of dog C03-T-07, all reported AEs were transient in nature—resolved by 24-48 h post treatment in the majority of cases.
# [2] = Example 2: serum biochemistry and haematology; format: in vivo, dogs
# Excerpt: Individual blood samples were collected from the dogs into gel separated plain vacuettes at intervals outlined in Table 12. Plain blood samples were submitted on ice bricks by express courier to the local IDEXX laboratory which performed detailed biochemical analysis. Analysis included creatinine, protein, albumin, globulin, alkaline phosphatase, AST, gamma GT, creatine kinase, cholesterol, magnesium, calcium, phosphate, sodium, potassium, chloride, ALT, glucose, urea, amylase, bilirubin and triglycerides.
# Individual blood samples were collected from the dogs into anti-coagulated (EDTA and sodium citrate) vacutainers at intervals outlined in Table 12. Blood samples were then be submitted on ice bricks by express courier to the local IDEXX laboratory, which performed detailed haematological analysis. Analysis included red blood cell count, white cell count, packed cell volume, mean corpuscular volume, mean corpuscular haemoglobin, mean corpuscular haemoglobin concentration, white cell differential count, platelets, haemoglobin, reticulocytes, PT and APTT.
smiles,measurement,setting,value
"C/C=C(\C)C(=O)O[C@@H]1[C@@H](C)[C@@]2(O)[C@H]([C@@H]3C(C)(C)[C@]13OC(=O)[C@@H](C)CC)[C@@H]1O[C@]1(CO)[C@@H](O)[C@]1(O)C(=O)C(C)=C[C@H]12 [Compound 1, 12-tigloyl-13-(2-methylbutanoyl)-6,7-epoxy-4,5,9,12,13,20-hexahydroxy-1-tigliaen-3-one]",Number of AEs identified,"[1]; 12 dogs, 15 event types",44
same,Share of AEs of VCOG-CTCAE Grade 1,[1]; 28 out of 44,61.3%
same,Dogs that died during the course of the study,"[1]; dog C03-T-07, Day 4, veterinarian did not believe Compound 1 directly contributed",1
same,Time by which reported AEs resolved post treatment,"[1]; majority of cases, except dog C03-T-07",24 to 48 h
same,Number of AEs of ‘mild’ VCOG-CTCAE Grade 1 (no intervention required),[1]; out of 44 AEs,28
same,Cases requiring minimal medical intervention,[1]; with the exception of dog C03-T-07,3
same,Anaemia during the course of the study,[2]; all cohorts,No dog exhibited anaemia
same,Bleeding disorder during the course of the study,[2]; all cohorts,No dog exhibited a bleeding disorder
same,Haematology observations,[2]; all cohorts,fairly unremarkable
same,Number of dogs with slightly elevated reticulocyte counts post treatment,[2]; all cohorts (27 dogs),7
same,Serum biochemistry observations,"[2]; all cohorts, exceptions dogs GCV-204 (AST, CK) and NVC-307 (transient AST, ALT)",fairly unremarkable
same,Number of dogs with slightly lower platelet counts post treatment,[2]; platelets described as ‘clumping’,5
